Source: patent US9375013B2, “Herbicidal composition” (ISHIHARA SANGYO KAISHA, LTD., priority 2013, dated 2016)

Tests used:
Assay type in all cases: in vivo
[1] = tested on: ivy-leaved morningglory (Ipomoea hederacea (L.) Jacq.); assay: Test Example 2: pot soil treatment, growth inhibition of ivy-leaved morningglory; settings: 22nd day after treatment, read-out: Growth inhibition rate (%) of ivy-leaved morningglory, Measured value
Excerpt: (§1) On the 14th day after treatment, the state of growth of the summergrass was visually observed to determine the growth inhibition rate in accordance with the following evaluation standard. The growth inhibition rate (%) (measured value) and the growth inhibition rate (%) (calculated value) calculated by the Colby's formula are shown in Table 1. Growth inhibition rate (%)=0 (equivalent to the non-treated area) to 100 (complete kill) Upland field soil was put into a 1/160,000 ha pot, and seeds of ivy-leaved morningglory (Ipomoea hederacea (L.) Jacq.) were sown. On the next day, predetermined amounts of flazasulfuron and hexazinone were diluted with water (in an amount corresponding to 300 L/ha), and applied for soil treatment by a small sprayer. On the 22nd day after treatment, the state of growth of the ivy-leaved morningglory was visually observed to determine the growth inhibition rate. The growth inhibition rate (%) (measured value) and the growth inhibition rate (%) calculated in the same manner as in Test Example 1 are shown in Table 2.

[2] = tested on: field bindweed (Convolvulus arvensis L.); assay: Test Example 5: pot soil treatment, growth inhibition of field bindweed; settings: dose 300 g/ha, 22nd day after treatment, read-out: Growth inhibition rate (%) of field bindweed, Measured value
Excerpt: as §1, with “field bindweed (Convolvulus arvensis L.)” for “ivy-leaved morningglory (Ipomoea hederacea (L.) Jacq.)”, “field bindweed” for “ivy-leaved morningglory”, “5.” for “2.”

[3] = tested on: shattercane (Sorghum bicolor (L.) Moench.); assay: Test Example 6: pot soil treatment, growth inhibition of shattercane; settings: dose 100 g/ha, 22nd day after treatment, read-out: Growth inhibition rate (%) of shattercane, Measured value
Excerpt: On the 14th day after treatment, the state of growth of the summergrass was visually observed to determine the growth inhibition rate in accordance with the following evaluation standard. The growth inhibition rate (%) (measured value) and the growth inhibition rate (%) (calculated value) calculated by the Colby's formula are shown in Table 1. Growth inhibition rate (%)=0 (equivalent to the non-treated area) to 100 (complete kill)
Upland field soil was put into a 1/160,000 ha pot, and seeds of shattercane (Sorghum bicolor (L.) Moench.) were sown. On the next day, predetermined amounts of flazasulfuron and hexazinone were diluted with water (in an amount corresponding to 300 L/ha), and applied for soil treatment by a small sprayer.
On the 22nd day after treatment, the state of growth of the shattercane was visually observed to determine the growth inhibition rate. The growth inhibition rate (%) (measured value) and the growth inhibition rate (%) calculated in the same manner as in Test Example 1 are shown in Table 6.

[4] = tested on: barnyardgrass (Echinochloa crus-galli L); assay: Test Example 9: pot soil treatment, growth inhibition of barnyardgrass; settings: dose 100 g/ha, 21st day after treatment, read-out: Growth inhibition rate (%) of barnyardgrass, Measured value
Excerpt: as §1, with “barnyardgrass (Echinochloa crus-galli L)” for “ivy-leaved morningglory (Ipomoea hederacea (L.) Jacq.)”, “21st” for “22nd”, “barnyardgrass” for “ivy-leaved morningglory”, “9.” for “2.”

[5] = tested on: persian speedwell (Veronica persica Poiret.); assay: Test Example 10: pot soil treatment, growth inhibition of persian speedwell; settings: dose 100 g/ha, 21st day after treatment, read-out: Growth inhibition rate (%) of persian speedwell, Measured value
[6] = tested on: velvetleaf (Abutilon theophrasti MEDIC.); assay: Test Example 14: pot soil treatment, growth inhibition of velvetleaf; settings: dose 200 g/ha, 21st day after treatment, read-out: Growth inhibition rate (%) of velvetleaf, Measured value
Excerpt: as §1, with “velvetleaf (Abutilon theophrasti MEDIC.)” for “ivy-leaved morningglory (Ipomoea hederacea (L.) Jacq.)”, “21st” for “22nd”, “velvetleaf” for “ivy-leaved morningglory”, “14.” for “2.”

[7] = tested on: summergrass (Digitaria ciliaris (Retz.) Koeler); assay: Test Example 1: pot soil treatment, growth inhibition of summergrass; settings: dose 150 g/ha, 14th day after treatment, read-out: Growth inhibition rate (%) of summergrass, Measured value
Method: Upland field soil was put into a 1/160,000 ha pot, and seeds of summergrass (Digitaria ciliaris (Retz.) Koeler) were sown. On the next day, predetermined amounts of flazasulfuron and imazapic were diluted with water (in an amount corresponding to 300 L/ha), and applied for soil treatment by a small sprayer. On the 14th day after treatment, the state of growth of the summergrass was visually observed to determine the growth inhibition rate in accordance with the following evaluation standard. The growth inhibition rate (%) (measured value) and the growth inhibition rate (%) (calculated value) calculated by the Colby's formula are shown in Table 1. Growth inhibition rate (%)=0 (equivalent to the non-treated area) to 100 (complete kill)

[8] = tested on: wild oat (Avena fatua L.); assay: Test Example 3: pot soil treatment, growth inhibition of wild oat; settings: 22nd day after treatment, read-out: Growth inhibition rate (%) of wild oat, Measured value
Excerpt: as §1, with “wild oat (Avena fatua L.)” for “ivy-leaved morningglory (Ipomoea hederacea (L.) Jacq.)”, “flazasulfuron, mesotrione” for “flazasulfuron”, “imazapic” for “hexazinone”, “wild oat” for “ivy-leaved morningglory”, “3.” for “2.”

[9] = tested on: persian speedwell (Veronica persica Poir.); assay: Test Example 8: pot soil treatment, growth inhibition of persian speedwell; settings: 21st day after treatment, read-out: Growth inhibition rate (%) of persian speedwell, Measured value
[10] = tested on: common ragweed (Ambrosia artemisiifolia L.); assay: Test Example 11: pot soil treatment, growth inhibition of common ragweed; settings: dose 150 g/ha, 21st day after treatment, read-out: Growth inhibition rate (%) of common ragweed, Measured value
Excerpt: as §1, with “common ragweed (Ambrosia artemisiifolia L.)” for “ivy-leaved morningglory (Ipomoea hederacea (L.) Jacq.)”, “imazapic” for “hexazinone”, “21st” for “22nd”, “common ragweed” for “ivy-leaved morningglory”, “11.” for “2.”

[11] = tested on: common lespedeza (Lespedeza striata (Thunb.) Hook. et Arn.); assay: Test Example 12: pot soil treatment, growth inhibition of common lespedeza; settings: Kummerowia striata, dose 50 g/ha, 21st day after treatment, read-out: Growth inhibition rate (%) of common lespedeza, Measured value
Excerpt: as §1, with “common lespedeza (Lespedeza striata (Thunb.) Hook. et Arn.)” for “ivy-leaved morningglory (Ipomoea hederacea (L.) Jacq.)”, “imazapic” for “hexazinone”, “21st” for “22nd”, “common lespedeza” for “ivy-leaved morningglory”, “12.” for “2.”

[12] = tested on: velvetleaf (Abutilon theophrasti MEDIC.); assay: Test Example 13: pot soil treatment, growth inhibition of velvetleaf; settings: dose 50 g/ha, 21st day after treatment, read-out: Growth inhibition rate (%) of velvetleaf, Measured value
[13] = tested on: field bindweed (Convolvulus arvensis L.); assay: Test Example 15: pot soil treatment, growth inhibition of field bindweed; settings: 21st day after treatment, read-out: Growth inhibition rate (%) of field bindweed, Measured value
Excerpt: as §1, with “field bindweed (Convolvulus arvensis L.)” for “ivy-leaved morningglory (Ipomoea hederacea (L.) Jacq.)”, “flazasulfuron, mesotrione” for “flazasulfuron”, “imazapic” for “hexazinone”, “21st” for “22nd”, “field bindweed” for “ivy-leaved morningglory”, “15.” for “2.”

[14] = tested on: guinea grass (Panicum maximum Jacq.); assay: Test Example 4: pot soil treatment, growth inhibition of guinea grass; settings: Megathyrsus maximus, dose 200 g/ha, 22nd day after treatment, read-out: Growth inhibition rate (%) of guinea grass, Measured value
Excerpt: as §1, with “guinea grass (Panicum maximum” for “ivy-leaved morningglory (Ipomoea hederacea (L.)”, “mesotrione” for “hexazinone”, “guinea grass” for “ivy-leaved morningglory”, “4.” for “2.”

[15] = tested on: rostrate sesbania(Sesbania rostrata Bremek. & Oberm.); assay: Test Example 7: pot soil treatment, growth inhibition of rostrate sesbania; settings: 22nd day after treatment, read-out: Growth inhibition rate (%) of rostrate sesbania, Measured value

`CN(C)c1nc(=O)n(C2CCCCC2)c(=O)n1C` [Hexazinone, hexazinone] was tested, and the inhibition at 100 g/ha ([1]; dose 100 g/ha) was 0%, the inhibition at 200 g/ha ([1]; dose 200 g/ha) was 30% and the inhibition at 300 g/ha ([1]; dose 300 g/ha) was 40%. It also gave an inhibition at 300 g/ha [2] of 15%, an inhibition at 100 g/ha [3] of 0% and an inhibition at 100 g/ha [4] of 0%. For the same molecule, the inhibition at 100 g/ha [5] was 85% and the inhibition at 200 g/ha [6] was 30%.
In the case of `Cc1cnc(C2=NC(=O)C(C)(C(C)C)N2)c(C(=O)O)c1` (stereo not drawn) [Imazapic, imazapic], the inhibition at 150 g/ha [7] is reported as 50%, the inhibition at 100 g/ha ([8]; dose 100 g/ha) is reported as 40% and the inhibition at 150 g/ha ([8]; dose 150 g/ha) is reported as 60%. It also gave an inhibition at 50 g/ha [9] of 50%, an inhibition at 150 g/ha [10] of 60% and an inhibition at 50 g/ha [11] of 0%. For the same molecule, the inhibition at 50 g/ha [12] was 30% and the inhibition at 150 g/ha ([13]; dose 150 g/ha) was 15%.
`CS(=O)(=O)c1ccc(C(=O)C2C(=O)CCCC2=O)c([N+](=O)[O-])c1` [Mesotrione, mesotrione] was tested, and the inhibition at 50 g/ha ([8]; dose 50 g/ha) was 40%, the inhibition at 200 g/ha ([8]; dose 200 g/ha) was 0% and the inhibition at 200 g/ha [14] was 0%. It also gave an inhibition at 50 g/ha [15] of 15% and an inhibition at 200 g/ha ([13]; dose 200 g/ha) of 60%.
